According to ChEMBL document CHEMBL4680228 (Eur J Med Chem, 2020):
Active and inactive are the calls of the source. No cut-off for these calls is given here.

Key:
SR = test: Antiproliferative activity against human SR cells assessed as reduction in cell growth; type: functional, cell-based
[1] = biological target: von Hippel-Lindau disease tumor suppressor/ALK tyrosine kinase receptor/Nucleophosmin (Homo sapiens, UniProt Q9UM73+P06748+P40337); test: Protac activity at VHL/NPM-ALK fusion protein in human SR cells assessed as degradation of ALK; type: cell-based
Sequence of von Hippel-Lindau disease tumor suppressor/ALK tyrosine kinase receptor/Nucleophosmin (Q9UM73 whole entry, the tested form may be a part): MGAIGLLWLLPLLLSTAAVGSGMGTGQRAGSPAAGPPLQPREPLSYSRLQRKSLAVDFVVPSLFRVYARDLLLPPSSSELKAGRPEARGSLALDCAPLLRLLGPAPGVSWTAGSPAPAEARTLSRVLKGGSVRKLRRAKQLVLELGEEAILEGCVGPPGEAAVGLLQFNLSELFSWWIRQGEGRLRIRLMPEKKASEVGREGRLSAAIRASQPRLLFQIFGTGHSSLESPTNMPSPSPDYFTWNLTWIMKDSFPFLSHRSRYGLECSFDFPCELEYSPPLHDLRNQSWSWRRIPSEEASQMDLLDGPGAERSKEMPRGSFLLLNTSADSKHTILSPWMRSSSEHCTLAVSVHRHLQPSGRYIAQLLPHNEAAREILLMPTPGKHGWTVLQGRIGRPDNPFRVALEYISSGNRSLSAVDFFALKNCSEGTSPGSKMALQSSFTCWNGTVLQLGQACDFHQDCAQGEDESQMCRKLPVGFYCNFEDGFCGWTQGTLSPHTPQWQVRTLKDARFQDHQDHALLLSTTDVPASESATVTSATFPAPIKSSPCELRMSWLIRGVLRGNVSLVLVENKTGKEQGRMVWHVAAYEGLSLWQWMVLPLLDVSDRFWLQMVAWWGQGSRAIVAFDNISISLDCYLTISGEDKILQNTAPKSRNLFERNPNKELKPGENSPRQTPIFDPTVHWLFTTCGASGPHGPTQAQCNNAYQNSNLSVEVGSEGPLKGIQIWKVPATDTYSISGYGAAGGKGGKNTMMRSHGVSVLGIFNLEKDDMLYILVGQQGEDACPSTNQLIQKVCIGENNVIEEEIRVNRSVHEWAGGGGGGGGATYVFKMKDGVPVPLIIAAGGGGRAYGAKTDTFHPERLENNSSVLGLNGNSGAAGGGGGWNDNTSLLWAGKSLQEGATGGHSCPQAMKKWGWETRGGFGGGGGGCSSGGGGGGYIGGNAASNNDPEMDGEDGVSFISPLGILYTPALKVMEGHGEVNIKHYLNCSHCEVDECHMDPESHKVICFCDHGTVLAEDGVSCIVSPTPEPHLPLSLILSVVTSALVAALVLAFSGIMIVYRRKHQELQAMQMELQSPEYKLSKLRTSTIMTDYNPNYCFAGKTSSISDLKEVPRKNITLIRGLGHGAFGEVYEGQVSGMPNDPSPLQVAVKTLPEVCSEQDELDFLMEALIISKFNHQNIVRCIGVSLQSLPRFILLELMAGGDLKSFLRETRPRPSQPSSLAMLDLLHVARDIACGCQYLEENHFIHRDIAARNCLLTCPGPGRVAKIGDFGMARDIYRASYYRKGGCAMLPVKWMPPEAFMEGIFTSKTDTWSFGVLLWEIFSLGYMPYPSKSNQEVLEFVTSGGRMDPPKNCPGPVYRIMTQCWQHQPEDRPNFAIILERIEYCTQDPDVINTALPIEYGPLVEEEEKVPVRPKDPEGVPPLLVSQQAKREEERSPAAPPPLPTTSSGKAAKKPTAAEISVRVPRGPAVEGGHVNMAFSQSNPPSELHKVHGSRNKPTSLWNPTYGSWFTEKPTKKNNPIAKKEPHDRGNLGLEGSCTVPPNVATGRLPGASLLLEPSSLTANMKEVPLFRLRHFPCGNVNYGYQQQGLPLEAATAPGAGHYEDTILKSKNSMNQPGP
Sequence of von Hippel-Lindau disease tumor suppressor/ALK tyrosine kinase receptor/Nucleophosmin (P06748 whole entry, the tested form may be a part): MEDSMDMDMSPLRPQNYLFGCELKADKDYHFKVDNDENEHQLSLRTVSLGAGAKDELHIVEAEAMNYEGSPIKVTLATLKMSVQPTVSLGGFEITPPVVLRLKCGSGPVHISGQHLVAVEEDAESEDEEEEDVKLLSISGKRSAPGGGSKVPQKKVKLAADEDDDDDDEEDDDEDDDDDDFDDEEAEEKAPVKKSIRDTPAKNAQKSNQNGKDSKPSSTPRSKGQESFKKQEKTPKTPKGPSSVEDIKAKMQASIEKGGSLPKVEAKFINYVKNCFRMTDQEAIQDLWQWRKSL
Sequence of von Hippel-Lindau disease tumor suppressor/ALK tyrosine kinase receptor/Nucleophosmin (P40337 whole entry, the tested form may be a part): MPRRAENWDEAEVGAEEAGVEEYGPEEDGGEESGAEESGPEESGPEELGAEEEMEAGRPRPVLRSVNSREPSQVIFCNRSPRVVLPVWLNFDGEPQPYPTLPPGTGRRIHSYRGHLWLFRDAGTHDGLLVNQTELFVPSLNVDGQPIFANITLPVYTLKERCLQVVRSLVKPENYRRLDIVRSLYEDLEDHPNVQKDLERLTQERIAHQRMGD

[2] = biological target: NPM/ALK (Nucleophosmin/ALK tyrosine kinase receptor) (Homo sapiens) (UniProt Q9UM73+P06748); test: Induction of NPM-ALK fusion protein degradation in human SR cells; type: cell-based
Sequence of NPM/ALK (Nucleophosmin/ALK tyrosine kinase receptor) (Homo sapiens) (P06748 whole entry partner, the tested form may be a part): as the sequence (P06748 whole entry, the tested form may be a part) above
Sequence of NPM/ALK (Nucleophosmin/ALK tyrosine kinase receptor) (Homo sapiens) (Q9UM73 19-1620 limits assumed): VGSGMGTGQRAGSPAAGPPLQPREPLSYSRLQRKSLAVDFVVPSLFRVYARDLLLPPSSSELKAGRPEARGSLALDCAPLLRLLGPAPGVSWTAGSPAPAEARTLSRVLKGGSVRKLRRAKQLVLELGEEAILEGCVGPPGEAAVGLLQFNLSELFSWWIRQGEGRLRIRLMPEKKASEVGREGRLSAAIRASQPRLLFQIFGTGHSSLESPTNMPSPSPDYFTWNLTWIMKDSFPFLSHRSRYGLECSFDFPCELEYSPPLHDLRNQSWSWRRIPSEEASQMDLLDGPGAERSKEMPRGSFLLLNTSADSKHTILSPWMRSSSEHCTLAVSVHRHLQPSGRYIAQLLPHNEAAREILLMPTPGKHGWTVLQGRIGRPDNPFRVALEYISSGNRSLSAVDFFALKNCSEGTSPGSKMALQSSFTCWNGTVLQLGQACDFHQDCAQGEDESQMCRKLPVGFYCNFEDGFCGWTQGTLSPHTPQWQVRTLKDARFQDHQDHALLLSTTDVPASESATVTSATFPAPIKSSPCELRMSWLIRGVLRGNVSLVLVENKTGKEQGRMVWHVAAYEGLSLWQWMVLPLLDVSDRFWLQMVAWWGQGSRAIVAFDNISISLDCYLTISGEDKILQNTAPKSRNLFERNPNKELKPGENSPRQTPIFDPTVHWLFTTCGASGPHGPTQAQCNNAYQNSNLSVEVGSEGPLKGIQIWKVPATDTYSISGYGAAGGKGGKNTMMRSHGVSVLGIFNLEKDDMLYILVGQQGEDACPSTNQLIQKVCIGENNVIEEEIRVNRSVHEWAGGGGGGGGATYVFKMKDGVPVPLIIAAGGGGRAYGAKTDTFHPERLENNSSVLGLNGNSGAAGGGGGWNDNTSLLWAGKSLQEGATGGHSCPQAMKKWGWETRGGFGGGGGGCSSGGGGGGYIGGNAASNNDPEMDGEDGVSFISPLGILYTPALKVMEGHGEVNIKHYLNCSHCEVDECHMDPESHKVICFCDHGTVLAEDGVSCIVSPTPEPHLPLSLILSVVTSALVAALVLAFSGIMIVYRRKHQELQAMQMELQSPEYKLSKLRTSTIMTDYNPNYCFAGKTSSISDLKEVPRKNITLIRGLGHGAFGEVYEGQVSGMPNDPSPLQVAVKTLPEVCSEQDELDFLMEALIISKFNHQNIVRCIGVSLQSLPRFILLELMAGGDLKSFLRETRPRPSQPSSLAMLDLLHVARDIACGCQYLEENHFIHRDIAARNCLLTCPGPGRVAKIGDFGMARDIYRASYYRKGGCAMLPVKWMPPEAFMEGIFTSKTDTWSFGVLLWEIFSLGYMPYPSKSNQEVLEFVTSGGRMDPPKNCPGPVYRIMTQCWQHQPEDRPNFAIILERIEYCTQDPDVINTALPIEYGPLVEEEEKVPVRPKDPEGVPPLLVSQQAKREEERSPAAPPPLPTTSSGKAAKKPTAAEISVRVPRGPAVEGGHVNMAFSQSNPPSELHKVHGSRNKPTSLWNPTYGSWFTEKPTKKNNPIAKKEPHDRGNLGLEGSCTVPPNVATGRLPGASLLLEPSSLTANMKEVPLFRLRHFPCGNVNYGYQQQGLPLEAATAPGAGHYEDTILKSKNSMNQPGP

NCI-H69 = test: Antiproliferative activity against human NCI-H69 cells assessed as inhibition of cell proliferation; type: functional, cell-based
cells = conditions: Homo sapiens, NCI-H1688
Description: Antiproliferative activity against human NCI-H1688 cells assessed as inhibition of cell proliferation

NCI-H2228 = test: Antiproliferative activity against human NCI-H2228 cells expressing EML4-ALK assessed as reduction in cell viability incubated for 72 hrs by CCK8 assay; type: functional, cell-based; conditions: NCI-H2228, 72 h

| Structure (SMILES) | Activity (SR) | also measured |
| --- | --- | --- |
| COc1cc(N2CCN(C(=O)CCCCCC(=O)N[C@H](C(=O)N3C[C@H](O)C[C@H]3C(=O)NCc3ccc(-c4scnc4C)cc3)C(C)(C)C)CC2)ccc1Nc1ncc(Cl)c(Nc2ccccc2P(C)(C)=O)n1 | Active | – |
| COc1cc(N2CCC(N3CCN(C(=O)CCOCCOCCOCCC(=O)N[C@H](C(=O)N4C[C@H](O)C[C@H]4C(=O)NCc4ccc(-c5scnc5C)cc4)C(C)(C)C)CC3)CC2)ccc1Nc1ncc(Cl)c(Nc2ccccc2P(C)(C)=O)n1 | inactive | – |
| COc1cc(N2CCN(C(=O)CCOCCOCCOCCC(=O)N[C@H](C(=O)N3C[C@H](O)C[C@H]3C(=O)NCc3ccc(-c4scnc4C)cc3)C(C)(C)C)CC2)ccc1Nc1ncc(Cl)c(Nc2ccccc2P(C)(C)=O)n1 | inactive | – |
| COc1cc(N2CCN(C(=O)CCCCCCCC(=O)N[C@H](C(=O)N3C[C@H](O)C[C@H]3C(=O)NCc3ccc(-c4scnc4C)cc3)C(C)(C)C)CC2)ccc1Nc1ncc(Cl)c(Nc2ccccc2P(C)(C)=O)n1 | Active | DC50 [1]: 15 nM |
| COc1cc(N2CCC(N3CCN(C(=O)CCOCCOCCOCCOCCC(=O)N[C@H](C(=O)N4C[C@H](O)C[C@H]4C(=O)NCc4ccc(-c5scnc5C)cc4)C(C)(C)C)CC3)CC2)ccc1Nc1ncc(Cl)c(Nc2ccccc2P(C)(C)=O)n1 | inactive | – |
| COc1cc(N2CCC(N3CCN(C(=O)CCOCCOCCC(=O)N[C@H](C(=O)N4C[C@H](O)C[C@H]4C(=O)NCc4ccc(-c5scnc5C)cc4)C(C)(C)C)CC3)CC2)ccc1Nc1ncc(Cl)c(Nc2ccccc2P(C)(C)=O)n1 | inactive | – |
| COc1cc(N2CCC(NC(=O)CCCCC(=O)N[C@H](C(=O)N3C[C@H](O)C[C@H]3C(=O)NCc3ccc(-c4scnc4C)cc3)C(C)(C)C)CC2)ccc1Nc1ncc(Cl)c(Nc2ccccc2P(C)(C)=O)n1 | Active | – |
| COc1cc(N2CCC(N3CCN(C(=O)CCCCCCCCC(=O)N[C@H](C(=O)N4C[C@H](O)C[C@H]4C(=O)NCc4ccc(-c5scnc5C)cc4)C(C)(C)C)CC3)CC2)ccc1Nc1ncc(Cl)c(Nc2ccccc2P(C)(C)=O)n1 | Active | DC50 [1]: 7.5 nM |
| COc1cc(N2CCC(NC(=O)CCCCCCCCC(=O)N[C@H](C(=O)N3C[C@H](O)C[C@H]3C(=O)NCc3ccc(-c4scnc4C)cc3)C(C)(C)C)CC2)ccc1Nc1ncc(Cl)c(Nc2ccccc2P(C)(C)=O)n1 | Active | DC50 [1]: 7.2 nM |
| COc1cc(N2CCC(N3CCN(C(=O)CCCCCCC(=O)N[C@H](C(=O)N4C[C@H](O)C[C@H]4C(=O)NCc4ccc(-c5scnc5C)cc4)C(C)(C)C)CC3)CC2)ccc1Nc1ncc(Cl)c(Nc2ccccc2P(C)(C)=O)n1 | Active | DC50 [1]: 11.4 nM |
| COc1cc(N2CCC(N3CCN(C(=O)CCCCC(=O)N[C@H](C(=O)N4C[C@H](O)C[C@H]4C(=O)NCc4ccc(-c5scnc5C)cc4)C(C)(C)C)CC3)CC2)ccc1Nc1ncc(Cl)c(Nc2ccccc2P(C)(C)=O)n1 | Active | – |
| COc1cc(N2CCN(C(=O)CCOCCOCCC(=O)N[C@H](C(=O)N3C[C@H](O)C[C@H]3C(=O)NCc3ccc(-c4scnc4C)cc3)C(C)(C)C)CC2)ccc1Nc1ncc(Cl)c(Nc2ccccc2P(C)(C)=O)n1 | inactive | – |
| COc1cc(N2CCN(C(=O)CCCCC(=O)N[C@H](C(=O)N3C[C@H](O)C[C@H]3C(=O)NCc3ccc(-c4scnc4C)cc3)C(C)(C)C)CC2)ccc1Nc1ncc(Cl)c(Nc2ccccc2P(C)(C)=O)n1 | Active | – |
| COc1cc(N2CCC(N3CCNCC3)CC2)ccc1Nc1ncc(Cl)c(Nc2ccccc2P(C)(C)=O)n1 | – | IC50 (SR): 6.8 nM; Activity [2]: inactive |
| COc1cc(N2CCC(N3CCN(C(=O)CCCCCC(=O)N[C@H](C(=O)N4C[C@H](O)C[C@H]4C(=O)NCc4ccc(-c5scnc5C)cc4)C(C)(C)C)CC3)CC2)ccc1Nc1ncc(Cl)c(Nc2ccccc2P(C)(C)=O)n1 | Active | – |
| COc1cc(N2CCN(C(=O)CCC(=O)N[C@H](C(=O)N3C[C@H](O)C[C@H]3C(=O)NCc3ccc(-c4scnc4C)cc3)C(C)(C)C)CC2)ccc1Nc1ncc(Cl)c(Nc2ccccc2P(C)(C)=O)n1 | Active | – |
| COc1cc(N2CCNCC2)ccc1Nc1ncc(Cl)c(Nc2ccccc2P(C)(C)=O)n1 | – | IC50 (SR): 1.6 nM |
| COc1cc(N2CCC(NC(=O)CCCC(=O)N[C@H](C(=O)N3C[C@H](O)C[C@H]3C(=O)NCc3ccc(-c4scnc4C)cc3)C(C)(C)C)CC2)ccc1Nc1ncc(Cl)c(Nc2ccccc2P(C)(C)=O)n1 | Active | – |
| COc1cc(N2CCC(NC(=O)CCCCCCC(=O)N[C@H](C(=O)N3C[C@H](O)C[C@H]3C(=O)NCc3ccc(-c4scnc4C)cc3)C(C)(C)C)CC2)ccc1Nc1ncc(Cl)c(Nc2ccccc2P(C)(C)=O)n1 | Active | DC50 [1]: 9.1 nM |

| Structure (SMILES) | Activity (SR) | also measured |
| --- | --- | --- |
| COc1cc(N2CCN(C(=O)CCCCCCCCC(=O)N[C@H](C(=O)N3C[C@H](O)C[C@H]3C(=O)NCc3ccc(-c4scnc4C)cc3)C(C)(C)C)CC2)ccc1Nc1ncc(Cl)c(Nc2ccccc2P(C)(C)=O)n1 | Active | DC50 [1]: > 50 nM |
| COc1cc(N2CCC(N3CCN(C(=O)CCOCCOCCOCCOCCOCCC(=O)N[C@H](C(=O)N4C[C@H](O)C[C@H]4C(=O)NCc4ccc(-c5scnc5C)cc4)C(C)(C)C)CC3)CC2)ccc1Nc1ncc(Cl)c(Nc2ccccc2P(C)(C)=O)n1 | inactive | – |
| COc1cc(N2CCC(NC(=O)CCC(=O)N[C@H](C(=O)N3C[C@H](O)C[C@H]3C(=O)NCc3ccc(-c4scnc4C)cc3)C(C)(C)C)CC2)ccc1Nc1ncc(Cl)c(Nc2ccccc2P(C)(C)=O)n1 | Active | – |
| COc1cc(N2CCC(NC(=O)CCCCCC(=O)N[C@H](C(=O)N3C[C@H](O)C[C@H]3C(=O)NCc3ccc(-c4scnc4C)cc3)C(C)(C)C)CC2)ccc1Nc1ncc(Cl)c(Nc2ccccc2P(C)(C)=O)n1 | Active | – |
| Cc1ncsc1-c1ccc(CNC(=O)[C@@H]2C[C@@H](O)CN2C(=O)[C@@H](NC(=O)CCCCCCCCCC(=O)O)C(C)(C)C)cc1 | – | IC50 (NCI-H69): > 40000 nM; IC50 (cells): > 45000 nM |
| COc1cc(N2CCC(NC(=O)CCOCCOCCOCCOCCOCCC(=O)N[C@H](C(=O)N3C[C@H](O)C[C@H]3C(=O)NCc3ccc(-c4scnc4C)cc3)C(C)(C)C)CC2)ccc1Nc1ncc(Cl)c(Nc2ccccc2P(C)(C)=O)n1 | inactive | – |
| COc1cc(N2CCC(N3CCN(C)CC3)CC2)ccc1Nc1ncc(Cl)c(Nc2ccccc2P(C)(C)=O)n1 [BRIGATINIB] | – | IC50 (SR): 2.7 nM; Activity [2]: inactive; IC50 (NCI-H2228): 58.2 nM; IC50 (NCI-H69): 2600 nM; IC50 (cells): 691 nM |
| COc1cc(N2CCN(C(=O)CCOCCOCCOCCOCCOCCC(=O)N[C@H](C(=O)N3C[C@H](O)C[C@H]3C(=O)NCc3ccc(-c4scnc4C)cc3)C(C)(C)C)CC2)ccc1Nc1ncc(Cl)c(Nc2ccccc2P(C)(C)=O)n1 | inactive | – |
| COc1cc(N2CCC(N3CCN(C(=O)CCC(=O)N[C@H](C(=O)N4C[C@H](O)C[C@H]4C(=O)NCc4ccc(-c5scnc5C)cc4)C(C)(C)C)CC3)CC2)ccc1Nc1ncc(Cl)c(Nc2ccccc2P(C)(C)=O)n1 | Active | – |
| COc1cc(N2CCC(NC(=O)CCOCCOCCOCCC(=O)N[C@H](C(=O)N3C[C@H](O)C[C@H]3C(=O)NCc3ccc(-c4scnc4C)cc3)C(C)(C)C)CC2)ccc1Nc1ncc(Cl)c(Nc2ccccc2P(C)(C)=O)n1 | inactive | – |
| COc1cc(N2CCN(C(=O)CCCC(=O)N[C@H](C(=O)N3C[C@H](O)C[C@H]3C(=O)NCc3ccc(-c4scnc4C)cc3)C(C)(C)C)CC2)ccc1Nc1ncc(Cl)c(Nc2ccccc2P(C)(C)=O)n1 | Active | – |
| COc1cc(N2CCN(C(=O)CCCCCCC(=O)N[C@H](C(=O)N3C[C@H](O)C[C@H]3C(=O)NCc3ccc(-c4scnc4C)cc3)C(C)(C)C)CC2)ccc1Nc1ncc(Cl)c(Nc2ccccc2P(C)(C)=O)n1 | Active | DC50 [1]: > 50 nM |
| COc1cc(N2CCN(C(=O)CCOCCOCCOCCOCCC(=O)N[C@H](C(=O)N3C[C@H](O)C[C@H]3C(=O)NCc3ccc(-c4scnc4C)cc3)C(C)(C)C)CC2)ccc1Nc1ncc(Cl)c(Nc2ccccc2P(C)(C)=O)n1 | inactive | – |
| COc1cc(N2CCC(NC(=O)CCCCCCCC(=O)N[C@H](C(=O)N3C[C@H](O)C[C@H]3C(=O)NCc3ccc(-c4scnc4C)cc3)C(C)(C)C)CC2)ccc1Nc1ncc(Cl)c(Nc2ccccc2P(C)(C)=O)n1 | Active | DC50 [1]: 20.9 nM |
| COc1cc(N2CCC(N3CCN(C(=O)CCCC(=O)N[C@H](C(=O)N4C[C@H](O)C[C@H]4C(=O)NCc4ccc(-c5scnc5C)cc4)C(C)(C)C)CC3)CC2)ccc1Nc1ncc(Cl)c(Nc2ccccc2P(C)(C)=O)n1 | Active | – |
| COc1cc(N2CCC(N)CC2)ccc1Nc1ncc(Cl)c(Nc2ccccc2P(C)(C)=O)n1 | – | IC50 (SR): 1.7 nM; Activity [2]: inactive |
| COc1cc(N2CCC(N3CCN(C(=O)CCCCCCCC(=O)N[C@H](C(=O)N4C[C@H](O)C[C@H]4C(=O)NCc4ccc(-c5scnc5C)cc4)C(C)(C)C)CC3)CC2)ccc1Nc1ncc(Cl)c(Nc2ccccc2P(C)(C)=O)n1 | Active | DC50 [1]: 25.1 nM |
| COc1cc(N2CCC(NC(=O)CCOCCOCCOCCOCCC(=O)N[C@H](C(=O)N3C[C@H](O)C[C@H]3C(=O)NCc3ccc(-c4scnc4C)cc3)C(C)(C)C)CC2)ccc1Nc1ncc(Cl)c(Nc2ccccc2P(C)(C)=O)n1 | inactive | – |
| COc1cc(N2CCC(NC(=O)CCOCCOCCC(=O)N[C@H](C(=O)N3C[C@H](O)C[C@H]3C(=O)NCc3ccc(-c4scnc4C)cc3)C(C)(C)C)CC2)ccc1Nc1ncc(Cl)c(Nc2ccccc2P(C)(C)=O)n1 | inactive | – |
